Assays:
[1] = biological target: full-length human Plk1 (Homo sapiens (Human), UniProt P53350); assay: ELISA-based Plk1 PBD-binding inhibition assay; conditions: for IC50: Plk1 PBD, n = 3 unless noted
Experimental: An ELISA-based PBD-binding inhibition assay was performed essentially as described previously. […] The wells were washed once with PBS+0.05% Tween20 (PBST) and incubated with 200 μl of PBS plus 1% BSA (blocking buffer) for 1 h to prevent non-specific binding. HEK293A lysates expressing HA-EGFP-Plk1 were prepared in a TBSN [20 mM Tris-HCl (pH 8.0), 150 mM NaCl, 0.5% NP-40, 5 mM EGTA, 2 mM MgCl2, 1.5 mM EDTA, and protease inhibitor cocktail (Roche)]+20% DMSO buffer (˜20 μg total lysates in 100 μl buffer), mixed with the indicated amount of the competitors (p-T78 peptide and its derivative compounds) for 30 min, provided onto the biotinylated peptide-coated ELISA wells, and then incubated with constant rocking for 1 h at 25° C. Following the incubation, ELISA plates were washed 5 times with PBST. To detect bound HA-EGFP-Plk1, the plates were probed for 2 h with 100 μl/well of anti-HA antibody at a concentration of 0.5 μg/ml in the blocking buffer and then washed 5 times. The plates were further probed for 1 h with 100 μl/well of HRP-conjugated secondary antibody (GE Healthcare) at a 1:1,000 dilution in the blocking buffer. The plates were washed 5 times with PBST and incubated with 100 μl/well of 3,3′,5,5′-tetramethylbenzidine solution (Sigma-Aldrich, St. Louis, MO) as substrate until a desired absorbance was reached. The reactions were stopped by the addition of 100 μl/well of stop solution (Cell Signaling Technology, Danvers, MA). The optical density (O.D.) was measured at 450 nm by using a Perkin-Elmer Enspire Multimode Plate reader (PerkinElmer, Inc., Boston, MA). Data obtained from more than three independent experiments were analyzed by GraphPad (San Diego, CA) Prism software version 7.
ELISA-based PBD-binding Inhibition Assay. […] The reaction products were measured at 450 nm by using a Perkin-Elmer Enspire Multimode Plate reader (PerkinElmer, Inc., Boston, MA). Data obtained from more than three independent experiments were analyzed by GraphPad (San Diego, CA) Prism software version 7.

[2] = test system: multiple myeloma-derived L363 cells; assay: MTS cell proliferation assay in L363 cells; assay type: cell-based; conditions: for GI50: Homo sapiens, L-363, 48 h treatment, read-out: Cell efficacy, GI50 ± sd; for Cell efficacy, GI50 ± sd (μM): 48 h treatment
Experimental: MTS Assay. […] 96™ AQueous One Solution Cell Proliferation Assay (MTS) kit (Promega, WI). Briefly, asynchronously growing L363 cells cultured in a 96-well plate were treated with the indicated compounds for 48 h.

[3] = test system: HeLa cells; assay: Mitotic arrest and antiproliferation in HeLa cells (DAPI staining, cell counts); assay type: cell-based; conditions: for population of rounded cells with mitotically arrested or apoptotic chromosome morphologies: 25 μM, 12 h
Experimental: HeLa cells were cultured as recommended by the American Type Culture Collection (ATCC). […] Immunostaining was carried out using anti-Plk1 (Santa Cruz Biotechnology, Santa Cruz, CA), anti-Cep63 (MilliporeSigma), anti-CREST (Antibodies Incorp, Davis, CA), and anti-α-tubulin (Sigma, St. Louis, MO) antibodies.
To quantify fluorescence signal intensities, images were acquired under the same settings and the images obtained after the maximum-intensity projection of z-stacks were analyzed using the Zeiss ZEN v2.1 software (Carl Zeiss Microscopy, LLC). All the quantifications were performed with randomly chosen fields from at least three independent experiments. All values are given as mean±s. D. P values were calculated by unpaired t test from the mean data of each group in Graph Pad Prism (***P<0.001). The statistical details including the definitions and value of n (e.g., number of experimental replicates, cells, etc.) And standard deviations are provided herein.

[4] = Aqueous solubility; conditions: aqueous solubility
[5] = Microsomal metabolic stability, rat liver microsomes (RLM); conditions: rat liver microsomes

Sequence of full-length human Plk1 (P53350 whole entry): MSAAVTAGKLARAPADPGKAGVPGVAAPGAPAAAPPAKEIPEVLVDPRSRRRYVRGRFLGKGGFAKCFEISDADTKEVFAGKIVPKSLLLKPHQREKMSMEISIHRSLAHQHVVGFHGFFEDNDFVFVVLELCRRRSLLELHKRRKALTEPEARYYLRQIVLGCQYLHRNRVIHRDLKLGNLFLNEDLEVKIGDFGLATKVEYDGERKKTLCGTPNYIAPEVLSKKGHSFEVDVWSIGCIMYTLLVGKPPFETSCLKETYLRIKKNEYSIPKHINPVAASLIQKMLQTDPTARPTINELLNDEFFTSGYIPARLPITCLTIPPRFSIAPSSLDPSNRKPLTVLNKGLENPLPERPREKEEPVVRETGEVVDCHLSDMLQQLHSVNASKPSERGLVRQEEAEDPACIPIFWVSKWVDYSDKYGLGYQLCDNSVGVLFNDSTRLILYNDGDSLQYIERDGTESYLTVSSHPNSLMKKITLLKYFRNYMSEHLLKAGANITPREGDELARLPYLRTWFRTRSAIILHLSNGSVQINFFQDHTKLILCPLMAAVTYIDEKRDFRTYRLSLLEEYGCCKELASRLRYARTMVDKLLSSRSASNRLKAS

SMILES	IC50 [1]	GI50 [2]	Solub. [4]	other results
CCCn1c(=O)c2ccccc2n2c(=S)n(CC(=O)c3ccccc3)nc12 [compound 39]	> 50 µM	–	–	–
CCCn1c(=O)c2sc(C)cc2n2c(Sc3c([N+](=O)[O-])ncn3C)nnc12 [75 (NCK173), 7-methyl-1-((1-methyl-4-nitro-1H-imidazol-5-yl)thio)-4-propylthieno[2,3-e][1,2,4]triazolo[4,3-a]pyrimidin-5(4H)-one]	–	4.14 ± 0.31 µM	–	–
CC(=O)Nc1ccc2c(c1)c(=O)n(CCc1ccccc1)c1n[nH]c(=S)n21 [Example 14, N-(5-oxo-4-phenethyl-1-thioxo-1,2,4,5-tetrahydro-[1,2,4]triazolo[4,3-a]quinazolin-7-yl)acetamide]	–	–	–	population of rounded cells with mitotically arrested or apoptotic chromosome morphologies [3]: failed to show any of these phenotypes; Cell efficacy, GI50 ± sd (μM) [2]: failed to induce any a detectable level of cellular response
CCCn1c(=O)c2scc(C)c2n2c(Sc3c([N+](=O)[O-])ncn3C)nnc12 [74 (NCK170), 8-methyl-1-((1-methyl-4-nitro-1H-imidazol-5-yl)thio)-4-propylthieno[2,3-e][1,2,4]triazolo[4,3-a]pyrimidin-5(4H)-one]	–	25.8 ± 0.26 µM	–	–
Cc1cc2c(s1)c(=O)n(CC1CC1)c1nnc(Sc3c([N+](=O)[O-])ncn3C)n21 [85 (NCK182), 4-(cyclopropylmethyl)-7-methyl-1-((1-methyl-4-nitro-1H-imidazol-5-yl)thio)thieno[2,3-e][1,2,4]triazolo[4,3-a]pyrimidin-5(4H)-one]	–	3.11 µM	–	–
CCCn1c(=O)c2sc(C)cc2n2c(Sc3c(C(F)(F)F)ncn3C)nnc12 [76 (NCK174), 7-methyl-1-((1-methyl-4-(trifluoromethyl)-1H-imidazol-5-yl)thio)-4-propylthieno[2,3-e][1,2,4]triazolo[4,3-a]pyrimidin-5(4H)-one]	–	> 400 µM	–	–
CCCCCn1c(=O)c2ccccc2n2c(=S)[nH]nc12 [compound 24]	1.97 ± 0.11 µM	–	4.2 µg/mL	–
CCCn1c(=O)c2cccc(F)c2n2c(Sc3c([N+](=O)[O-])ncn3C)nnc12 [73 (NCK167), 9-fluoro-1-((1-methyl-4-nitro-1H-imidazol-5-yl)thio)-4-propyl-[1,2,4]triazolo[4,3-a]quinazolin-5(4H)-one]	–	14 ± 0.39 µM	–	–
C=CCn1c(=O)c2ccccc2n2c(=S)[nH]nc12 [compound 22]	1.31 ± 0.03 µM	–	19.4 µg/mL	–
CCCn1c(=O)c2cccc(F)c2n2c(=S)[nH]nc12 [compound 139, 9-fluoro-4-propyl-1-thioxo-2,4-dihydro-[1,2,4]triazolo[4,3-a]quinazolin-5(1H)-one]	–	–	–	induction of mitotic arrest (rounded cells with apoptotic or aberrant chromosome morphologies) ([3]; 100 μM): lacked a detectable level of cellular response
Cc1cccc(-n2c(=O)c3ccccc3n3c(=S)[nH]nc23)c1C [compound 33]	1.85 ± 0.12 µM	–	–	–
CCCn1c(=O)c2sc(C)cc2n2c(Sc3c(S(N)(=O)=O)ncn3C)nnc12 [77 (NCK175), 1-methyl-5-((7-methyl-5-oxo-4-propyl-4,5-dihydrothieno[2,3-e][1,2,4]triazolo[4,3-a]pyrimidin-1-yl)thio)-1H-imidazole-4-sulfonamide]	–	> 400 µM	–	–
O=c1c2cc(F)ccc2n2c(=S)[nH]nc2n1CCc1ccc(Cl)cc1 [Example 43, 4-(4-chlorophenethyl)-7-fluoro-1-thioxo-2,4-dihydro-[1,2,4]triazolo[4,3-a]quinazolin-5(1H)-one]	–	–	–	population of rounded cells with mitotically arrested or apoptotic chromosome morphologies [3]: failed to show any of these phenotypes; Cell efficacy, GI50 ± sd (μM) [2]: failed to induce any a detectable level of cellular response
CC(C)CCn1c(=O)c2ccccc2n2c(=S)[nH]nc12 [compound 25]	1.73 ± 0.08 µM	–	8.0 µg/mL	–
COCCCn1c(=O)c2ccccc2n2c(=S)[nH]nc12 [compound 28]	1.75 ± 0.19 µM	–	31.2 µg/mL	–
CCOCCCn1c(=O)c2ccccc2n2c(=S)[nH]nc12 [compound 29]	1.68 ± 0.11 µM	–	15.5 µg/mL	lower IC50 compared to 14 ([1]; ELISA assay): 29%
CCCCn1c(=O)c2ccccc2n2c(=S)[nH]nc12 [compound 23]	1.03 ± 0.14 µM	–	8.5 µg/mL	PAMPA: 77.5 ×10⁻⁶ cm/s; t1/2 (min, RLM) [5]: >30 min
